Source: patent US7713994B2 (Wyeth LLC, priority 2005, dated 2010)
Like-named read-outs stand apart in the source and are kept apart here.

Key:
BT474 = assay: Cytotoxicity assay (SRB), BT474; assay type: cell-based; details: BT474 cells, SRB, 6 days, read-out: In Vitro Cellular Activity IC50 BT474
In short: (§1)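 Protein staining with sulforhodamine B after cold TCA fixation served as the survival endpoint (A540, relative to untreated cells). Before staining, cells were incubated with compound at 37 °C, 7% CO2 for 3 days, or 6 days for BT474.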

LoVo = assay: Cytotoxicity assay (SRB), LoVo; assay type: cell-based; details: LoVo cells, SRB, three days, read-out: In Vitro Cellular Activity IC50 LOVO
In short: as §1

MCF-7 = assay: Cytotoxicity assay (SRB), MCF-7; assay type: cell-based; details: MCF-7 cells, SRB, three days, read-out: In Vitro Cellular Activity IC50 MCF-7
In short: as §1

HCT-116 = assay: Cytotoxicity assay (SRB), HCT-116; assay type: cell-based; details: HCT116 cells, SRB, three days, read-out: In Vitro Cellular Activity IC50 HCT116
In short: as §1

SK-UT-1B = assay: In Vitro Cellular Activity (Table III), SK-UT-1B; assay type: cell-based; details: SK-UT-1B cells
cyclin E/CDK2 enzyme = biological target: T1, cyclin E/CDK2 enzyme (Homo sapiens, UniProt P24941); assay: CDK2 ELISA kinase assay (phospho-Rb ser 795 detection); assay type: biochemical; details: In Vitro Enzyme Assays, read-out: CDK2 IC50
T1 construct: made in house; host or cells: Sf9 insect cells, recombinant baculovirus
In short: (§2)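 GST-Rb C-terminal fragment coated on plates; partially purified Sf9-expressed cyclin D1/CDK4, cyclin E/CDK2 or cyclin B/CDK1 with 200 μM ATP, pH 7.5 HEPES/MgCl2 buffer, 1 h at 30 °C; screen compound final 10 μg/ml. Phospho-Rb Ser795 detected by antibody ELISA (TMB, A450); % of control, IC50 from background-subtracted inhibition curves.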

cyclin B/CDK1 enzyme = biological target: T2, cyclin B/CDK1 enzyme (Homo sapiens, UniProt P06493); assay: CDK1 ELISA kinase assay (phospho-Rb ser 795 detection); assay type: biochemical; details: In Vitro Enzyme Assays, read-out: CDK1 IC50
T2 construct: purchased New England BioLabs; host or cells: Sf9 insect cells, recombinant baculovirus
In short: as §2

cyclin D1/cdk 4 enzyme = biological target: T3, cyclin D1/cdk 4 enzyme (Homo sapiens, UniProt P11802); assay: CDK4 ELISA kinase assay (phospho-Rb ser 795 detection); assay type: biochemical; details: In Vitro Enzyme Assays, 200 μM ATP, read-out: CDK4 IC50
T3 construct: made in house; host or cells: Sf9 insect cells, recombinant baculovirus
In short: as §2

T2 sequence (P06493 whole entry): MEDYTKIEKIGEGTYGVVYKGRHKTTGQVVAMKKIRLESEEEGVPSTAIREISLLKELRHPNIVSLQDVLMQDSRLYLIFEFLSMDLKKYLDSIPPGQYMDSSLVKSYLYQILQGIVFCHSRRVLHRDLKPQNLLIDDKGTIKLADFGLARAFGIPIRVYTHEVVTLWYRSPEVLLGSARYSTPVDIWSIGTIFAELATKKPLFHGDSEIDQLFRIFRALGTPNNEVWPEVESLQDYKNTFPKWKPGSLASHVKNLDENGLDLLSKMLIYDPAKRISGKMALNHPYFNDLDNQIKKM
T2 sequence (P14635 whole entry partner): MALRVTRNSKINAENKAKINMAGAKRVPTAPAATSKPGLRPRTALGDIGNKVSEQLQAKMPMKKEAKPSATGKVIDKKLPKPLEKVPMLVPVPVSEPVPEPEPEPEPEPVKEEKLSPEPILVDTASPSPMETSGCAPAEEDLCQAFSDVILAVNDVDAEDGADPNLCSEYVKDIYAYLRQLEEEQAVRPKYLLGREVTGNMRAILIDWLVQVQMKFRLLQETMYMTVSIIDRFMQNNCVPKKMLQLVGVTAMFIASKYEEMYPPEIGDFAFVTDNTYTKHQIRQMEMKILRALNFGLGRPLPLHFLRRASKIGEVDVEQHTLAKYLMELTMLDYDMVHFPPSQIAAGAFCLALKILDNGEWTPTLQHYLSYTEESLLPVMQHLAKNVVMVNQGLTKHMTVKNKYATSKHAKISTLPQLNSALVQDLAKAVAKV
T3 sequence (P11802 whole entry, species assumed): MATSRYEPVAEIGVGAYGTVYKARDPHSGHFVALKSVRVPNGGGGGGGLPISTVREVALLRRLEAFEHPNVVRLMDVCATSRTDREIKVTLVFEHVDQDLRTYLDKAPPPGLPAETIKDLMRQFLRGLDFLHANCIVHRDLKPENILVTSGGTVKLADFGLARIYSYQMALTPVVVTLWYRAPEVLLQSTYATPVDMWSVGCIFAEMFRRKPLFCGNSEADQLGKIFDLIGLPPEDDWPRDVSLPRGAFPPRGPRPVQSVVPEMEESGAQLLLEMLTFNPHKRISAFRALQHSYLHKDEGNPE
T3 sequence (P24385 whole entry partner, species assumed): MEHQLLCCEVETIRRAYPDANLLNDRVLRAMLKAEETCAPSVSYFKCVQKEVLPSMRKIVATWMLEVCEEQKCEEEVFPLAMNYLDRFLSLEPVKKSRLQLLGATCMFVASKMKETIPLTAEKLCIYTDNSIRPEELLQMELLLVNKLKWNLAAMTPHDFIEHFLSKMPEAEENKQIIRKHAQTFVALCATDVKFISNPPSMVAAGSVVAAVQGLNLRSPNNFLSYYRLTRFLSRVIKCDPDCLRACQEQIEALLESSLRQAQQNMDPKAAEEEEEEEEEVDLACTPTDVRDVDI

Cn1ccnc1Sc1ccc(N/C=C2\C(=O)NC(=O)c3ccccc32)cc1Cl [Example 14, (4Z-4-[{3-Chloro-4[(1-methyl-1H-imidazole-2-uy)thio]phenyl}amino)methylene]isoquinoline-1,3(2H,4H)-dione]
melting point: 264 to 265 °C | IC50 (BT474; Homo sapiens, BT-474, 144 h): 38 µM | IC50 (LoVo; Homo sapiens, LoVo, 72 h): > 50 µM | IC50 (MCF-7; Homo sapiens, MCF7, 72 h): > 50 µM | IC50 (HCT-116; Homo sapiens, HCT-116, 72 h): 8.7 µM | IC50 (SK-UT-1B; Homo sapiens, Skut1B): 18.4 µM

O=C1NC(=O)c2ccccc2/C1=C/Nc1cccc(CN2CCCCC2)c1 [Example 16, (4Z)-4-({[3-(Piperidin-1-ylmethyl)phenyl]amino}methylene)isoquinoline-1,3(2H,4H)-dione]
melting point: 173 to 174 °C | IC50 (BT474; Homo sapiens, BT-474, 144 h): 45 µM | IC50 (LoVo; Homo sapiens, LoVo, 72 h): 14 µM | IC50 (MCF-7; Homo sapiens, MCF7, 72 h): 19 µM | IC50 (HCT-116; Homo sapiens, HCT-116, 72 h): 14 µM | IC50 (SK-UT-1B; Homo sapiens, Skut1B): 18.5 µM

O=C1NC(=O)c2ccccc2/C1=C/Nc1cccc(CN2CCCCCC2)c1 [Example 17, (4Z)-4-({[3-(Azepan-1-ylmethyl)phenyl]amino}methylene)isoquinoline-1,3(2H,4H)-dione]
melting point: 116 to 117 °C | IC50 (BT474; Homo sapiens, BT-474, 144 h): 30 µM | IC50 (LoVo; Homo sapiens, LoVo, 72 h): 19 µM | IC50 (MCF-7; Homo sapiens, MCF7, 72 h): 20 µM | IC50 (HCT-116; Homo sapiens, HCT-116, 72 h): 14 µM | IC50 (SK-UT-1B; Homo sapiens, Skut1B): 16 µM

O=C1NC(=O)c2ccccc2/C1=C/Nc1cccc(CN2CCCC2)c1 [Example 18, (4Z)-4-({[3-(Pyrrolidin-1-ylmethyl)phenyl]amino}methylene)isoquinoline-1,3(2H,4H)-dione]
melting point: 172 to 173 °C | IC50 (BT474; Homo sapiens, BT-474, 144 h): 31 µM | IC50 (LoVo; Homo sapiens, LoVo, 72 h): 23 µM | IC50 (MCF-7; Homo sapiens, MCF7, 72 h): 15 µM | IC50 (HCT-116; Homo sapiens, HCT-116, 72 h): 15 µM | IC50 (SK-UT-1B; Homo sapiens, Skut1B): 15.8 µM

O=C1NC(=O)c2ccccc2/C1=C/Nc1ccc(-c2ccccc2)cc1 [Example 21, (4Z)-4-[(1,1′-Biphenyl-4-ylamino)methylene]isoquinoline-1,3(2H,4H)-dione]
melting point: 261 to 262 °C | IC50 (BT474; Homo sapiens, BT-474, 144 h): > 50 µM | IC50 (LoVo; Homo sapiens, LoVo, 72 h): > 50 µM | IC50 (MCF-7; Homo sapiens, MCF7, 72 h): > 50 µM | IC50 (HCT-116; Homo sapiens, HCT-116, 72 h): > 50 µM | IC50 (SK-UT-1B; Homo sapiens, Skut1B): 19.7 µM

COc1cc(CN/C=C2\C(=O)NC(=O)c3ccc(Br)cc32)ccc1O [Example 28, (4Z)-6-Bromo-4-{[(4-hydroxy-3-methoxybenzyl)amino]methylene}isoquinoline-1,3(2H,4H)-dione]
melting point: 260 to 261 °C | IC50 (BT474; Homo sapiens, BT-474, 144 h): 39 µM | IC50 (LoVo; Homo sapiens, LoVo, 72 h): > 50 µM | IC50 (MCF-7; Homo sapiens, MCF7, 72 h): > 50 µM | IC50 (HCT-116; Homo sapiens, HCT-116, 72 h): 28 µM | IC50 (SK-UT-1B; Homo sapiens, Skut1B): 33 µM

CC(C)(C)OC(=O)N1CCN(Cc2ccc(N/C=C3\C(=O)NC(=O)c4ccccc43)cc2)CC1 [Example 34]
melting point: 219 to 220 °C | IC50 (BT474; Homo sapiens, BT-474, 144 h): 25 µM | IC50 (LoVo; Homo sapiens, LoVo, 72 h): > 50 µM | IC50 (MCF-7; Homo sapiens, MCF7, 72 h): 38 µM | IC50 (HCT-116; Homo sapiens, HCT-116, 72 h): 14 µM | IC50 (SK-UT-1B; Homo sapiens, Skut1B): 15 µM

O=C1NC(=O)c2ccc(Br)cc2/C1=C/Nc1ccccc1CN1CCCCC1 [Example 41, (4Z)-6-Bromo-4-({[2-(piperidin-1-ylmethyl)phenyl}amino)methylene]isoquinolin-1,3(2H,4H)-dione]
melting point: 170 to 171 °C | IC50 (BT474; Homo sapiens, BT-474, 144 h): 25 µM | IC50 (LoVo; Homo sapiens, LoVo, 72 h): 49 µM | IC50 (MCF-7; Homo sapiens, MCF7, 72 h): 13 µM | IC50 (HCT-116; Homo sapiens, HCT-116, 72 h): 39 µM | IC50 (SK-UT-1B; Homo sapiens, Skut1B): 11 µM

O=C1NC(=O)c2ccc(Br)cc2/C1=C/NCc1cccnc1 [compound 30]
IC50 (cyclin E/CDK2 enzyme): 1.4 µM | IC50 (BT474; Homo sapiens, BT-474, 144 h): 31 µM | IC50 (LoVo; Homo sapiens, LoVo, 72 h): 14 µM | IC50 (MCF-7; Homo sapiens, MCF7, 72 h): 15 µM | IC50 (HCT-116; Homo sapiens, HCT-116, 72 h): 9.2 µM | IC50 (cyclin B/CDK1 enzyme): > 50 µM | IC50 (SK-UT-1B; Homo sapiens, Skut1B): 4.9 µM | IC50 (cyclin D1/cdk 4 enzyme): > 50 µM

(4E)-4-(2,3-dimethoxybenzylidene)isoquinoline-1,3(2H,4H)-dione-(4Z)-4-(2,3-dimethoxybenzylidene)isoquinoline-1,3(2H,4H)-dione (1:1) [Example 9]
IC50 (cyclin E/CDK2 enzyme): > 32 µM | IC50 (BT474): 48 µM | IC50 (LoVo): 6.8 µM | IC50 (MCF-7): 9.7 µM | IC50 (HCT-116): 2.5 µM | IC50 (cyclin B/CDK1 enzyme): > 32 µM | IC50 (SK-UT-1B): 15.1 µM | IC50 (cyclin D1/cdk 4 enzyme): > 50 µM

(4E)-4-[4-(dimethylamino)benzylidene]isoquinoline-1,3(2H,4H)-dione-(4Z)-4-[4-(dimethylamino)benzylidene]isoquinoline-1,3(2H,4H)-dione (1:1) [Example 10]
IC50 (cyclin E/CDK2 enzyme): > 34 µM | IC50 (BT474): > 50 µM | IC50 (LoVo): 5.9 µM | IC50 (MCF-7): 12.5 µM | IC50 (HCT-116): 2.3 µM | IC50 (cyclin B/CDK1 enzyme): > 34 µM | IC50 (SK-UT-1B): 23.6 µM | IC50 (cyclin D1/cdk 4 enzyme): > 50 µM
